In the NIST ThermoML archive (doi:10.1016/j.jct.2012.11.002):
± gives the expanded uncertainty stated by the source.

Details: Liquid, Vibrating tube method

CCCCOC(=O)C(C)O (stereo not given) [butyl 2-hydroxypropanoate]
mass density [kg/m3]
Details	100 kPa	2500 kPa	5000 kPa	7500 kPa	10000 kPa	20000 kPa	30000 kPa	40000 kPa	50000 kPa	60000 kPa
283.15 K	992.75 ± 0.83	994.4 ± 0.83	996.14 ± 0.83	997.77 ± 0.84	999.41 ± 0.84	1005.87 ± 0.85	1011.69 ± 0.87	1017.42 ± 0.9	1022.85 ± 0.93	1027.71 ± 0.96
288.15 K	987.86 ± 0.82	989.52 ± 0.83	991.32 ± 0.83	993.09 ± 0.83	994.7 ± 0.83	1001.18 ± 0.84	1007.12 ± 0.86	1012.83 ± 0.88	1018.14 ± 0.91	1023.26 ± 0.94
293.15 K	982.96 ± 0.82	984.69 ± 0.82	986.5 ± 0.82	988.29 ± 0.83	990.02 ± 0.83	996.69 ± 0.84	1002.96 ± 0.85	1008.73 ± 0.87	1014.33 ± 0.89	1019.37 ± 0.92
298.15 K	977.96 ± 0.81	979.83 ± 0.82	981.74 ± 0.82	983.49 ± 0.82	985.26 ± 0.83	992.04 ± 0.83	998.37 ± 0.84	1004.29 ± 0.85	1009.82 ± 0.88	1015.17 ± 0.9
303.15 K	973.09 ± 0.81	974.98 ± 0.81	976.81 ± 0.81	978.72 ± 0.82	980.54 ± 0.82	987.67 ± 0.83	993.96 ± 0.84	1000.06 ± 0.84	1005.69 ± 0.86	1011.27 ± 0.89
308.15 K	967.74 ± 0.8	970.01 ± 0.8	971.95 ± 0.81	973.85 ± 0.81	975.59 ± 0.82	982.84 ± 0.83	989.43 ± 0.84	995.62 ± 0.84	1001.41 ± 0.84	1007.05 ± 0.87
313.15 K	963.05 ± 0.79	965.11 ± 0.8	967.03 ± 0.8	969.06 ± 0.81	970.96 ± 0.81	978.27 ± 0.83	985.03 ± 0.84	991.43 ± 0.84	997.35 ± 0.84	1002.99 ± 0.85
318.15 K	957.98 ± 0.79	960.06 ± 0.79	962.11 ± 0.8	964.16 ± 0.81	966.04 ± 0.81	973.62 ± 0.83	980.42 ± 0.84	986.96 ± 0.84	993.12 ± 0.84	998.83 ± 0.84
323.15 K	952.44 ± 0.78	954.61 ± 0.79	956.73 ± 0.79	958.74 ± 0.8	960.79 ± 0.81	968.64 ± 0.82	975.86 ± 0.84	982.37 ± 0.84	988.47 ± 0.85	994.3 ± 0.84
328.15 K	947.31 ± 0.78	949.44 ± 0.78	951.63 ± 0.79	953.79 ± 0.8	955.86 ± 0.8	963.73 ± 0.82	971.08 ± 0.84	977.8 ± 0.85	984.21 ± 0.85	990.17 ± 0.85
333.15 K	942.28 ± 0.77	944.52 ± 0.78	946.72 ± 0.79	948.91 ± 0.79	951.02 ± 0.8	959.28 ± 0.82	966.7 ± 0.84	973.8 ± 0.85	980.2 ± 0.85	986.43 ± 0.85
338.15 K	937.09 ± 0.76	939.39 ± 0.77	941.78 ± 0.78	943.99 ± 0.79	946.05 ± 0.79	954.42 ± 0.82	962.07 ± 0.84	969.19 ± 0.85	975.64 ± 0.86	982.05 ± 0.86
